Measurements from patent US7125877B2, “Benzimidazole derivatives” (Banyu Pharmaceutical Co., Ltd., priority 2002, dated 2006).
Counter-ions that a name gives are not always drawn.

Tests used:
[1] = target: T1, nociceptin receptor ORL1 (Homo sapiens, UniProt P41146); assay: Antagonism against nociceptin-elicited G protein activation (GTPγ[35S] binding, CHO/ORL1 membranes); format: biochemical; details: 50 nM nociceptin, 200 pM GTPγ[35S], CHO/ORL1 membrane, 25° C. for 150 minutes
T1 construct: expressed in transfected cells
Experimental: Pharmacological Test Example 2 (Antagonism Against Nociceptin-elicited G Protein Activation)
CHO cells which stably represented a nociceptin receptor ORL1 were used to investigate the action of each tested compound against nociceptin-elicited G protein activation. A membrane prepared from the CHO/ORL1 cells, 50 nM nociceptin, 200 pM GTPγ[^35S] (NEN), 1.5 mg Wheatgerm agglutinin SPA beads (Amersham Pharmacia) and each of the tested compounds were mixed in a GDP buffer (20 mM Hepes, 100 mM sodium chloride, 10 mM magnesium chloride, 1 mM EDTA, 5 μM GDP, pH 7.4) and incubated at 25° C. for 150 minutes, and then the radioactivity was determined. The antagonism against nociceptin-elicited G protein activation was shown by the 50% inhibition concentration (IC50 value) of each tested compound against GTPγ[^35S] binding.

[2] = target: T1, nociceptin receptor ORL1; assay: Nociceptin receptor binding inhibition assay ([125I]Tyr14-Nociceptin, SPA, CHO/ORL1 membranes); details: 50 pM [125I]Tyr14-Nociceptin, CHO/ORL1 membrane, 37° C. for 60 minutes; read-out: IC50 value, nociceptin receptor binding inhibition action
Experimental: Pharmacological Test Example 1 (Nociceptin Receptor Binding Inhibition Assay)
cDNA which codes a human nociceptin receptor gene was cloned into an expression vector pCR3 (Invitrogen) to prepare pCR3/ORL1. Next, pCR3/ORL1 was transfected in CHO cells using a transfectam (Nippongene) to obtain a stable expression strain (CHO/ORL1 cells) having resistance against 1 mg/ml G418. Membrane fractions were prepared from this stable expression strain to carry out a receptor binding assay.
The membrane of 11 μg, 50 pM [^125I] Tyr^14-Nociceptin (Amersham Pharmacia), 1 mg Wheatgerm agglutinin SPA beads (PVT based; Amersham Pharmacia) and each test compound were suspended in an NC buffer (50 mM Hepes, 10 mM sodium chloride, 1 mM magnesium chloride, 2.5 mM calcium chloride, 0.1% BSA, 0.025% bacitracin, pH 7.4) and incubated at 37° C. for 60 minutes, and then the radioactivity was determined. The binding activity to the nociceptin receptor was indicated by the 50% inhibition concentration (IC50 value) of [^125I]Tyr^14-Nociceptin binding by each compound of the present invention.

T1 sequence (P41146 whole entry): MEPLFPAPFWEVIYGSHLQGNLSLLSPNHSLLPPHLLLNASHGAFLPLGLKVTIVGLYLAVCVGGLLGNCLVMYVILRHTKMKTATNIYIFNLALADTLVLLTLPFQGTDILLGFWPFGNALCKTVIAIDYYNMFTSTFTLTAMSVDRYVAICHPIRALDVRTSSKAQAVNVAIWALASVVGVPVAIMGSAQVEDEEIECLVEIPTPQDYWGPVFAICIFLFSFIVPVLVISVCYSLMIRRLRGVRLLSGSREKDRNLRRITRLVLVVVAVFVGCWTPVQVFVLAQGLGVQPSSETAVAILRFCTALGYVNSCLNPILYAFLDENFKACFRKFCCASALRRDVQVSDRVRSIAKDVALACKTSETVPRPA

Compound | IC50 [1] [nM] | IC50 [2] [nM]
CCN1CCN(c2cc3[nH]c(C(=O)[C@]4(C)CC[C@@](C)(O)CC4)nc3cc2Cl)CC1 [Example 51, 5-chloro-2-[(1,4-trans)-1,4-dimethyl-4-hydroxycyclohexylcarbonyl]-6-(4-ethylpiperazin-1-yl) benzimidazole] | 0.65 | 1.4
COC(=O)N[C@H]1CC[C@](C)(C(=O)c2nc3cc(C)c(N4CCN(CCO)CC4C)cc3[nH]2)CC1 (single isomer, unassigned) [Example 11(2S*), 6-[4-(2-hydroxyethyl)-(2S*)-2-methylpiperazin-1-yl]-2-[(1,4-trans)-4-methoxycarbonylamino-1-methylcyclohexylcarbonyl]-5-methylbenzimidazole-fumaric acid salt] | 0.63 | 0.99
CCN1CCN(c2cc3[nH]c(C(=O)[C@]4(C)CC[C@@H](NC(=O)OC)CC4)nc3cc2Cl)C(C)C1 (single isomer, unassigned) [Example 1(2S*), 5-chloro-6-[4-ethyl-(2S*)-2-methylpiperazin-1-yl]-2-[(1,4-trans)-4-methoxycarbonylamino-1-methylcyclohexylcarbonyl]benzimidazole] | 0.82 | 0.51
CCN1CCN(c2cc3[nH]c(C(=O)[C@]4(CC)CC[C@@H](NC(=O)OC)CC4)nc3cc2Cl)C(C)C1 (single isomer, unassigned) [Example 15(2S*), 5-chloro-2-[(1,4-trans)-1-ethyl-4-(methoxycarbonylamino)-cyclohexylcarbonyl]-6-[4-ethyl-(2S*)-2-methylpiperazin-1-yl]benzimidazole-fumaric acid salt] | 0.42 | 0.19
CCN1CCN(c2cc3[nH]c(C(=O)C4(C)CCN(C(C)=O)CC4)nc3cc2C)C(C)C1 (single isomer, unassigned) [Example 27(2S*), 2-(1-acetyl-4-methylpiperidinyl-4-carbonyl)-6-[4-ethyl-(2S*)-2-methylpiperazin-1-yl]-5-methylbenzimidazole] | 1.5 | 1.9
COC[C@]1(C(=O)c2nc3cc(C)c(N4CCN5CCC[C@H]5C4)cc3[nH]2)CC[C@](C)(O)CC1 [Example 53, 6-[(S)-1,4-ziazabicyclo[4.3.0]nonan-4-yl]-2-[(1,4-trans)-4-hydroxy-1-methoxymethyl-4-methylcyclohexylcarbonyl]-5-methylbenzimidazole] | 1 | 0.55
CCN1CCN(c2cc3[nH]c(C(=O)N(C)C4CCCCC4)nc3cc2Cl)C(C)C1 (stereo not drawn) [Example 39(2S*)] |  | 29
CCN1CCN(c2cc3[nH]c(C(=O)[C@]4(CC)CC[C@@H](NC(=O)OC)CC4)nc3cc2C)C(C)C1 (single isomer, unassigned) [Example 47(2S*), 2-[(1,4-trans)-1-ethyl-4-(methoxycarbonylamino)-cyclohexylcarbonyl]-6-[4-ethyl-(2S*)-2-methylpiperazin-1-yl]-5-methylbenzimidazole-fumaric acid salt] | 0.36 | 0.22
CCN1CCN(c2cc3[nH]c(C(=O)[C@]4(C)CC[C@@H](O)CC4)nc3cc2Cl)C(C)C1 (single isomer, unassigned) [Example 24(2S*), 5-chloro-6-[4-ethyl-(2S*)-2-methylpiperazin-yl]-2-[(1,4-trans)-4-hydroxy-1-methylcyclohexylcarbonyl]benzimidazole] | 2.8 | 2.1
COC(=O)N[C@H]1CC[C@](C)(C(=O)c2nc3cc(Cl)c(N4CCN(CCO)CC4C)cc3[nH]2)CC1 (single isomer, unassigned) [Example 6(2S*), 5-chloro-6-[4-(2-hydroxyethyl)-(2S*)-2-methylpiperazin-1-yl]-2-[(1,4-trans)-4-methoxycarbonylamino-1-methylcyclohexylcarbonyl]benzimidazole-fumaric acid salt] | 0.92 | 0.41
CCN1CCN(c2cc3[nH]c(C(=O)[C@]4(C)CC[C@@H](NC(=O)OC)CC4)nc3cc2C)C(C)C1 (single isomer, unassigned) [Example 2(2S*), 6-[4-ethyl-(2S*)-2-methylpiperazin-1-yl]-2-[(1,4-trans)-4-methoxycarbonylamino-1-methylcyclohexylcarbonyl]-5-methylbenzimidazole] | 0.63 | 0.2
